The CheMixHub viscosity set
Several values for one entry are separate records, joined by “and”; a condition that tells them apart may be missing. Equal entries are not always repeated.

C1CC[NH2+]C1.CCCCCCCC(=O)[O-]
101 kPa
Settings	viscosity [mPa·s]
293.15 K	72.2
298.15 K	62.71
303.15 K	50.21
308.15 K	42.89
313.15 K	35.27

CC(=O)O.CC(=O)[O-].CC[NH+](CC)CCO
101 kPa
Settings	viscosity [mPa·s]
293.15 K	110.4
298.15 K	80.19
303.15 K	59.63
308.15 K	45.32
313.15 K	35.12
318.15 K	27.71
323.15 K	22.22

CC(O)CC(C)(C)O (stereo not drawn)
101 kPa
Settings	viscosity
308.15 K	20.29 mPa·s and 20.37 mPa·s
318.15 K	17.79 mPa·s and 17.73 mPa·s

CCC(C)O (stereo not drawn)
viscosity
Settings	293.15 K	298.15 K	303 K	303.15 K	308.15 K	318.15 K	323.15 K
100 kPa	4.036 mPa·s	–	–	–	–	–	1.626 mPa·s
101 kPa	–	–	–	2.742 mPa·s and 2.27 mPa·s and 2.741 mPa·s	2 mPa·s and 2.179 mPa·s	1.58 mPa·s and 1.566 mPa·s	1.41 mPa·s
101.3 kPa	–	–	–	3.177 mPa·s	2.582 mPa·s	–	–
101.33 kPa	3.647 mPa·s	2.925 mPa·s and 2.857 mPa·s	2.195 mPa·s	2.417 mPa·s and 2.741 mPa·s	2.034 mPa·s and 2.011 mPa·s	1.62 mPa·s	–

CCCCOCCOCCO
viscosity
Settings	298.15 K	303.15 K	308.15 K	318.15 K
100 kPa	5.11 mPa·s	4.345 mPa·s	3.872 mPa·s	–
101 kPa	4.877 mPa·s	–	3.582 mPa·s	2.943 mPa·s
101.33 kPa	5.232 mPa·s and 5.232 mPa·s	–	–	–

CCCCn1cc[n+](C)c1.F[B-](F)(F)F
viscosity
Settings	293.15 K	295.2 K	303.15 K	308.15 K	313.15 K	318.15 K	323.15 K
101 kPa	133.5 mPa·s and 127.6 mPa·s	122.9 mPa·s	–	65 mPa·s and 61.5 mPa·s and 58.36 mPa·s	52.2 mPa·s and 50.52 mPa·s and 46.22 mPa·s	42.6 mPa·s and 38.72 mPa·s	34.52 mPa·s
101.33 kPa	125.3 mPa·s	–	81.85 mPa·s and 87.7 mPa·s	63.57 mPa·s and 72.5 mPa·s	57.7 mPa·s	–	34.8 mPa·s

CCC[n+]1ccn(C)c1C.O=S(=O)([N-]S(=O)(=O)C(F)(F)F)C(F)(F)F
Settings	viscosity [mPa·s]
298.15 K, 101 kPa	85.6

Cc1ccc(O)cc1
Settings	viscosity
293.15 K, 101 kPa	18.95 mPa·s
298.15 K, 101 kPa	13.93 mPa·s and 14.74 mPa·s
313.15 K, 101.3 kPa	6.661 mPa·s
318.15 K, 101 kPa	5.795 mPa·s and 5.292 mPa·s (2×)
323.15 K, 101.3 kPa	4.48 mPa·s
323.15 K, 101.33 kPa	4.62 mPa·s

Cc1cccc(C)c1
Settings	viscosity
293.15 K, 100 kPa	0.614 mPa·s
293.15 K, 101 kPa	0.5522 mPa·s and 0.627 mPa·s
298.15 K, 101 kPa	0.5821 mPa·s and 0.5848 mPa·s
298.15 K, 101.3 kPa	0.586 mPa·s and 0.58 mPa·s
303 K, 101 kPa	0.5456 mPa·s and 0.5455 mPa·s
303.15 K, 101.3 kPa	0.543 mPa·s and 0.548 mPa·s and 0.5471 mPa·s
303.15 K, 101.33 kPa	0.555 mPa·s
308.15 K, 100 kPa	0.4712 mPa·s
308.15 K, 101 kPa	0.5329 mPa·s
308.15 K, 101.3 kPa	0.519 mPa·s
308.15 K, 101.33 kPa	0.5218 mPa·s and 0.542 mPa·s and 0.527 mPa·s
308.5 K, 101 kPa	0.547 mPa·s
313 K, 101 kPa	0.4931 mPa·s and 0.492 mPa·s
313.15 K, 100 kPa	0.492 mPa·s
313.15 K, 101 kPa	0.4463 mPa·s and 0.522 mPa·s and 0.4923 mPa·s
313.15 K, 101.3 kPa	0.49 mPa·s
323 K, 101 kPa	0.4487 mPa·s
323.15 K, 101 kPa	0.3949 mPa·s and 0.4488 mPa·s
323.15 K, 101.3 kPa	0.439 mPa·s

Cc1ccccc1N
viscosity
Settings	298.15 K	303.15 K	308.15 K	313.15 K	318.15 K
100 kPa	3.718 mPa·s	3.258 mPa·s and 3.258 mPa·s and 3.26 mPa·s	2.824 mPa·s and 2.824 mPa·s and 2.82 mPa·s	2.487 mPa·s and 2.487 mPa·s and 2.49 mPa·s	2.153 mPa·s and 2.153 mPa·s and 2.15 mPa·s
101 kPa	3.645 mPa·s	3.1 mPa·s	–	–	–

ClC(Cl)(Cl)c1ccccc1
Settings	viscosity [mPa·s]
298.15 K, 101.33 kPa	2.18

NCCCO
101 kPa
Settings	viscosity [mPa·s]
303.15 K	24.12
308.15 K	18.98
318.15 K	12.35
